Experimental data as given in article PMC8128076 (RSC Medicinal Chemistry, 2021).
Where two headings read alike, the source gives them in different places.

What was measured:
[1] = tested on: human MDR1 (P-gp); test: in vitro; conditions: dog, MDCK-MDR1
[2] = molecular target: T1, mTOR (Homo sapiens, UniProt P42345); test: LanthaScreen TR-FRET displacement binding assay, mTOR
[3] = tested on: phosphorylated S6 ribosomal protein [pS6, Ser235/236]; conditions: read-out: Cellular assays IC50 pS6 S235/236; A2058 melanoma cells; previously reported, ref [14]; cited from earlier work
[4] = molecular target: PI3Kα (p110α) (Homo sapiens, UniProt P42336); conditions: read-out: In vitro binding assays Ki PI3Kα; TR-FRET displacement, mean ± SD; previously reported, ref [14]; cited from earlier work
Sequence of PI3Kα (p110α) (P42336 whole entry): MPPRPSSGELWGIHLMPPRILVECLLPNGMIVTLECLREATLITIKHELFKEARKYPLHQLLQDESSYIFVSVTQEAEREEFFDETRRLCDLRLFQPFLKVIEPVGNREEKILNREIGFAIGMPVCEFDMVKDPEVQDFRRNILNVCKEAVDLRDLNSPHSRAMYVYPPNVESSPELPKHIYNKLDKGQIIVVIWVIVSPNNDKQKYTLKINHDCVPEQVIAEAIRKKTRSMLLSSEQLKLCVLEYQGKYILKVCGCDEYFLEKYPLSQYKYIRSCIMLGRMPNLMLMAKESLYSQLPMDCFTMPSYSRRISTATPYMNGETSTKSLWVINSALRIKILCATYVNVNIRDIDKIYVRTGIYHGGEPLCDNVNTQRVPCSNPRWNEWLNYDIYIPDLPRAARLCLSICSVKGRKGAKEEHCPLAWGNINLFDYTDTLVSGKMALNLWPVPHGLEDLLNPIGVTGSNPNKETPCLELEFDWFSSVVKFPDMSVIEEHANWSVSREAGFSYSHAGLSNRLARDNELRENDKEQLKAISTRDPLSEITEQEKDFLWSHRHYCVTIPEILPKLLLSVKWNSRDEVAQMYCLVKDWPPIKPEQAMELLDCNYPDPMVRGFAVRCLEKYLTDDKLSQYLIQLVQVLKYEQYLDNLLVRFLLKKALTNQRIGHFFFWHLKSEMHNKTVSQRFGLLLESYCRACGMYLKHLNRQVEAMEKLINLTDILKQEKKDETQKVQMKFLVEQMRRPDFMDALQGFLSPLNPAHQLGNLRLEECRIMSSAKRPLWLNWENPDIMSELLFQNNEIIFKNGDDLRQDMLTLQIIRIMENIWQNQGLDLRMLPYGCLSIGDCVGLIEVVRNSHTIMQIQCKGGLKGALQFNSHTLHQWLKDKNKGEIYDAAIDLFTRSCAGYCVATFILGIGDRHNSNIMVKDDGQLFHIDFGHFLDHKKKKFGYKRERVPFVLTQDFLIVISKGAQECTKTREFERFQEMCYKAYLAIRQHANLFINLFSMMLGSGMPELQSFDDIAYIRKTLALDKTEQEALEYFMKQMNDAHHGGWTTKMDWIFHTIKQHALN
Sequence of PI3Kα (p110α) (P27986 whole entry partner): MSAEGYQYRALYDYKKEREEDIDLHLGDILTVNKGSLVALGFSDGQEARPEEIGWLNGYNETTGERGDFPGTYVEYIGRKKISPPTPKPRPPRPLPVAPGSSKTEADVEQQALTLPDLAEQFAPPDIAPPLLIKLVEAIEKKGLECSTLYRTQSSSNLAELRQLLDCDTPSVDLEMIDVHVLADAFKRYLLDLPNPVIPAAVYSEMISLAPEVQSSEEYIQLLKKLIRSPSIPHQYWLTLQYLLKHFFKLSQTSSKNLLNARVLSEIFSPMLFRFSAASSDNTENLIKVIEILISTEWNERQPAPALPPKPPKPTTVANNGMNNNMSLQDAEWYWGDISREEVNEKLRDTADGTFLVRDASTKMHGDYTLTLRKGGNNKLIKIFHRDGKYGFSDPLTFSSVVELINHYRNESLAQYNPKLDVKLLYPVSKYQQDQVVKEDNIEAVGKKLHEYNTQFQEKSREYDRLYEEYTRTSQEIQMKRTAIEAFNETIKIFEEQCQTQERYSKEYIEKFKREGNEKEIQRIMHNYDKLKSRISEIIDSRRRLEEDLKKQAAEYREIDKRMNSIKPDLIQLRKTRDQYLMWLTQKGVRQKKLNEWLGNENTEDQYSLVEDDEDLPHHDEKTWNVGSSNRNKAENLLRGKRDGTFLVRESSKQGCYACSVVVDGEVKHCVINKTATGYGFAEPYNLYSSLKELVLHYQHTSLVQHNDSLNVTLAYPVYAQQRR

[5] = molecular target: T1, mTOR; conditions: previously reported, ref [14], cited from earlier work; for SI (selectivity index), Ki(PI3Kα)/Ki(mTOR): mTOR over PI3Kα

T1 sequence (P42345 1360-2549): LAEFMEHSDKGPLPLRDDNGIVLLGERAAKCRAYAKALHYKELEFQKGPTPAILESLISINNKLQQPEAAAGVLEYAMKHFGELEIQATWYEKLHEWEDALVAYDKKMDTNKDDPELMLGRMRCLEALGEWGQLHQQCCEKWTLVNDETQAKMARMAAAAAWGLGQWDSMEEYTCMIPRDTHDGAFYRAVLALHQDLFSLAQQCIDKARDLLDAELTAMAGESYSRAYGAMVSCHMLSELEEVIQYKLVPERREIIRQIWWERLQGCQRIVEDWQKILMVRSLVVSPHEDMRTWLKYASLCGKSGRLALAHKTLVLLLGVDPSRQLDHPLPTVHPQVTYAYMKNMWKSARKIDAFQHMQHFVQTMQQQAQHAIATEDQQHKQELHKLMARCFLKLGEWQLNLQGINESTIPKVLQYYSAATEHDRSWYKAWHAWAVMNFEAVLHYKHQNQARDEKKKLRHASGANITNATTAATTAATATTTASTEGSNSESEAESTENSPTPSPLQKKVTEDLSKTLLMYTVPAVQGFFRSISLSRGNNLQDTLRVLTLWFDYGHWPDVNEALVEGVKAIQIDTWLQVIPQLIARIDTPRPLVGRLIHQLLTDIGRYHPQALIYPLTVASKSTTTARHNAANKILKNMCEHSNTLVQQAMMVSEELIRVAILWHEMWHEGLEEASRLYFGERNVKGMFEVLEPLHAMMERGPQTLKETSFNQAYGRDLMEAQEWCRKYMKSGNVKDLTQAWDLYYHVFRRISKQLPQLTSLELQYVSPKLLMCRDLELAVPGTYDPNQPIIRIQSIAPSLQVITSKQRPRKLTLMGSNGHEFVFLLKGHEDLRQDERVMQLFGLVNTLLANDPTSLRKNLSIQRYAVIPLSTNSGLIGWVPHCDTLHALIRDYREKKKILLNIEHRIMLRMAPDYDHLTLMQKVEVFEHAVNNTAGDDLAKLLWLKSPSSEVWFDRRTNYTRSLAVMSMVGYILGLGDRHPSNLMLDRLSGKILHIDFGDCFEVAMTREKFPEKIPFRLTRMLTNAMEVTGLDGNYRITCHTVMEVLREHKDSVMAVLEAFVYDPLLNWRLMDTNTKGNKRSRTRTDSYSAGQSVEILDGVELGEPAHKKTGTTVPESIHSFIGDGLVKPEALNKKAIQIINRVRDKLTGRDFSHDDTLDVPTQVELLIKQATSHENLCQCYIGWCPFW

Papp [1] [×10⁻⁶ cm/s]	SMILES	IC50 [3] [nM]	Ki [4] [nM]	SI (selectivity index), Ki(PI3Kα)/Ki(mTOR) [5]	also measured
< 60	C[C@@H]1COCCN1c1nc(-c2cnc(N)s2)nc2c1C[C@@H]1COCCN21 [Compound 6]				
	C[C@@H]1COCCN1c1nc(-c2cnc(N)nc2C(F)F)nc2c1C[C@@H]1COCCN21 [Compound 8]				SI (selectivity index), Ki(PI3Kα)/Ki(mTOR) ([2]; mTOR over PI3Kα): < 1
	C[C@@H]1COCCN1c1nc(-c2nc(N)ns2)nc2c1C[C@@H]1COCCN21 [Compound 2]				fold decrease in mTOR affinity ([2]; 1,2,4-thiadiazole 2 versus pyrimidine 1): > 10 fold
< 60	C[C@@H]1COCCN1c1nc(-c2cnc(N)cn2)nc2c1C[C@@H]1COCCN21 [Compound 12b, reference compound]	60 ± 13	1690 ± 277	212	
< 60	C[C@@H]1COCCN1c1nc(-c2nnc(N)s2)nc2c1C[C@@H]1COCCN21 [Compound 4]				
	C[C@@H]1COCCN1c1nc(-c2ccc(N)nc2)nc2c1C[C@@H]1COCCN21 [Compound 5]	61 ± 12	2150 ± 400	215	Ki ([5]; read-out: In vitro binding assays Ki mTOR, TR-FRET displacement, mean ± SD): 10 ± 1.6 nM
